Measurements taken from ChEMBL document CHEMBL4507281, “Data for DCP probe BI-4394” (2021).

Experiments:
[1] = target: Serine/threonine-protein kinase Nek5 (Homo sapiens) (UniProt Q6P3R8); conditions: Compound concentration 100.0 nM
[2] = target: Mitogen-activated protein kinase kinase kinase kinase 3 (Homo sapiens) (UniProt Q8IVH8); conditions: Compound concentration 100.0 nM
[3] = target: Tyrosine-protein kinase BTK (Homo sapiens) (UniProt Q06187); conditions: Compound concentration 100.0 nM
[4] = target: Serine/threonine-protein kinase 33 (Homo sapiens) (UniProt Q9BYT3); conditions: Compound concentration 100.0 nM
[5] = species on record: Rattus norvegicus; conditions: Compound concentration 10.0 uM
[6] = test system: Epidermal growth factor receptor (Homo sapiens), P00533 [UNDEFINED MUTATION]; conditions: Compound concentration 100.0 nM
[7] = target: Myotonin-protein kinase (Homo sapiens) (UniProt Q09013); conditions: Compound concentration 100.0 nM
[8] = target: Protein-tyrosine kinase 6 (Homo sapiens) (UniProt Q13882); conditions: Compound concentration 100.0 nM
[9] = target: Receptor tyrosine-protein kinase erbB-3 (Homo sapiens) (UniProt P21860); conditions: Compound concentration 100.0 nM
[10] = target: RAF proto-oncogene serine/threonine-protein kinase (Homo sapiens) (UniProt P04049); conditions: Compound concentration 100.0 nM
[11] = target: T1, Activin receptor type-1B (Homo sapiens) (UniProt P36896); conditions: Compound concentration 100.0 nM
T1 sequence (whole entry): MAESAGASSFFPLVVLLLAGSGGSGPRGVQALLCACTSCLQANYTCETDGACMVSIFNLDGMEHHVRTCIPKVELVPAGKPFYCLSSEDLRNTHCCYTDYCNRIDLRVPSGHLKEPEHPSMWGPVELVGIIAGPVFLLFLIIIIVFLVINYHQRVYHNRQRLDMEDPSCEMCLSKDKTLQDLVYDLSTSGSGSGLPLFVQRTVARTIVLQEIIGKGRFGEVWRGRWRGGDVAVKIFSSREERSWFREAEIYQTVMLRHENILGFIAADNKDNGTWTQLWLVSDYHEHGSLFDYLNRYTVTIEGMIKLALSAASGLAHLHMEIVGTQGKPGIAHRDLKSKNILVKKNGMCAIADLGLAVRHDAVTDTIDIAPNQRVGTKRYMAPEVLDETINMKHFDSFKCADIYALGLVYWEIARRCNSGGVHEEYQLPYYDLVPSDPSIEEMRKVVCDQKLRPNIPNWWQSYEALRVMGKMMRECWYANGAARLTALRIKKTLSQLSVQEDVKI

[12] = test system: Proto-oncogene tyrosine-protein kinase receptor Ret (Homo sapiens), P07949 [V804M]; conditions: Compound concentration 100.0 nM
[13] = target: Receptor-interacting serine/threonine-protein kinase 4 (Homo sapiens) (UniProt P57078); conditions: Compound concentration 100.0 nM
[14] = target: Muscle, skeletal receptor tyrosine-protein kinase (Homo sapiens) (UniProt O15146); conditions: Compound concentration 100.0 nM
[15] = target: Casein kinase II subunit alpha' (Homo sapiens) (UniProt P19784); conditions: Compound concentration 100.0 nM
[16] = test system: Phosphatidylinositol 4,5-bisphosphate 3-kinase catalytic subunit alpha isoform (Homo sapiens), P42336 [C420R]; conditions: Compound concentration 100.0 nM
[17] = target: LIM domain kinase 1 (Homo sapiens) (UniProt P53667); conditions: Compound concentration 100.0 nM
[18] = target: Protein kinase C theta type (Homo sapiens) (UniProt Q04759); conditions: Compound concentration 100.0 nM
[19] = target: Mitogen-activated protein kinase kinase kinase kinase 5 (Homo sapiens) (UniProt Q9Y4K4); conditions: Compound concentration 100.0 nM
[20] = target: G protein-coupled receptor kinase 4 (Homo sapiens) (UniProt P32298); conditions: Compound concentration 100.0 nM
[21] = target: Mitogen-activated protein kinase 14 (Homo sapiens) (UniProt Q16539); conditions: Compound concentration 100.0 nM
[22] = target: Casein kinase I isoform alpha (Homo sapiens) (UniProt P48729); conditions: Compound concentration 100.0 nM
[23] = target: Serine/threonine-protein kinase RIO3 (Homo sapiens) (UniProt O14730); conditions: Compound concentration 100.0 nM
[24] = target: Cyclin-dependent kinase 4 (Homo sapiens) (UniProt P11802); conditions: Compound concentration 100.0 nM
[25] = target: Ribosomal protein S6 kinase alpha-2 (Homo sapiens) (UniProt Q15349); conditions: Compound concentration 100.0 nM
[26] = target: Ribosomal protein S6 kinase alpha-5 (Homo sapiens) (UniProt O75582); conditions: Compound concentration 100.0 nM
[27] = target: T2, Protein kinase C epsilon type (Homo sapiens) (UniProt Q02156); conditions: Compound concentration 100.0 nM
T2 sequence (whole entry): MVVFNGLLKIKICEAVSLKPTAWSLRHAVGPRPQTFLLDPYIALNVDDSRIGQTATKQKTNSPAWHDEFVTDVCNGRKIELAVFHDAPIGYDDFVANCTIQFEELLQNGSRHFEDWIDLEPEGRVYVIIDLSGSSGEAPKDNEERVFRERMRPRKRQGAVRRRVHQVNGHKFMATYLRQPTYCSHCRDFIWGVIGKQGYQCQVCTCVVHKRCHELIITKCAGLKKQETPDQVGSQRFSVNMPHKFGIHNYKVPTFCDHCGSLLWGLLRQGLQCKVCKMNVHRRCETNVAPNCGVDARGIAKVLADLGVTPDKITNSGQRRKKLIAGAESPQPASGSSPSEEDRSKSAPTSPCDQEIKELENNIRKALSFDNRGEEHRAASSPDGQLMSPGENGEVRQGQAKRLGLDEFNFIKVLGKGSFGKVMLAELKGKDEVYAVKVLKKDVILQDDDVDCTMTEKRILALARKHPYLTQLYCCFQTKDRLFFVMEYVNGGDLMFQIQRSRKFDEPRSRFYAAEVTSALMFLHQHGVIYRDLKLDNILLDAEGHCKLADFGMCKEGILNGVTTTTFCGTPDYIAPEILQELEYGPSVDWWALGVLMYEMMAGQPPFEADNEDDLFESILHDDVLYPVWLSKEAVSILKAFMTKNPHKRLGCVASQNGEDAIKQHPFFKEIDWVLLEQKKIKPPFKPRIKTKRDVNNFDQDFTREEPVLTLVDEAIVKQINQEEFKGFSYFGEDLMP

Proto-oncogene tyrosine-protein kinase receptor Ret (Homo sapiens), P07949 [V804M], sequence (P07949 whole entry V804M): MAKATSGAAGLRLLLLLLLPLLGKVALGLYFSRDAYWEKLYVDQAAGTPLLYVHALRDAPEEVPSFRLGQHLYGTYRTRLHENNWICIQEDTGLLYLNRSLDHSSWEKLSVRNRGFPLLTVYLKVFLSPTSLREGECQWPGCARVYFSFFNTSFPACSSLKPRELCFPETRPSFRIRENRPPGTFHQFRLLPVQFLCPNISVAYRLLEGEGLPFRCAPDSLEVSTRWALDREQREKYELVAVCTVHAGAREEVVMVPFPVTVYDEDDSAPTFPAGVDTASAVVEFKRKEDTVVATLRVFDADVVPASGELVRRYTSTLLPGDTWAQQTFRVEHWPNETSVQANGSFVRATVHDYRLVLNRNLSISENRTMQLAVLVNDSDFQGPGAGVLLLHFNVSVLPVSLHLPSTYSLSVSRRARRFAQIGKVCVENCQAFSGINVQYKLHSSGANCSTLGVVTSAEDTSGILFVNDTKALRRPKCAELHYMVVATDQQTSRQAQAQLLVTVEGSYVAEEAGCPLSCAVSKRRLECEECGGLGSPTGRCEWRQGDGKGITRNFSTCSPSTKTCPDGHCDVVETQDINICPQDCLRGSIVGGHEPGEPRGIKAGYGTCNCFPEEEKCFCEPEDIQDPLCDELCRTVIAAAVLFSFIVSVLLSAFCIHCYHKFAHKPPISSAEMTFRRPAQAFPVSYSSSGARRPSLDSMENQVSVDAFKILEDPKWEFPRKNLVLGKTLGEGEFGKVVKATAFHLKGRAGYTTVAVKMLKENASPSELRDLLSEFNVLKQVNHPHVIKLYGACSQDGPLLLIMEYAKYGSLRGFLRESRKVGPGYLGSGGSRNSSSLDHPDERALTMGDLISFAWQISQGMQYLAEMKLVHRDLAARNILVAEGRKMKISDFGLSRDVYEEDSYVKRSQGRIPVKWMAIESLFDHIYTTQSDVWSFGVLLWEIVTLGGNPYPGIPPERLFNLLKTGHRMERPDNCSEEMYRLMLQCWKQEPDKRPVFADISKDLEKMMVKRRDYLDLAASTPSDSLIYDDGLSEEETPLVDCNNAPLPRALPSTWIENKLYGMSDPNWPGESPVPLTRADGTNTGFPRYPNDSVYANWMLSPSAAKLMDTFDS
Cyclin-dependent kinase 4 (Homo sapiens), sequence (P11802 whole entry): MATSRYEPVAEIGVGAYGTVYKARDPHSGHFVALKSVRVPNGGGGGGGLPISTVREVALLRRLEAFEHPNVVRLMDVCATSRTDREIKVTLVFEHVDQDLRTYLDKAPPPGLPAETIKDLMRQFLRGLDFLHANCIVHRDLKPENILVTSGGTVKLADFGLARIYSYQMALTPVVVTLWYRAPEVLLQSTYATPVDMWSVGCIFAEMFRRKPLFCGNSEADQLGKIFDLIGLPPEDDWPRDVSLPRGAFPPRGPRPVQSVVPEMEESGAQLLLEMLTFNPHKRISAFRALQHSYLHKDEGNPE
Ribosomal protein S6 kinase alpha-5 (Homo sapiens), sequence (O75582 whole entry, looked up): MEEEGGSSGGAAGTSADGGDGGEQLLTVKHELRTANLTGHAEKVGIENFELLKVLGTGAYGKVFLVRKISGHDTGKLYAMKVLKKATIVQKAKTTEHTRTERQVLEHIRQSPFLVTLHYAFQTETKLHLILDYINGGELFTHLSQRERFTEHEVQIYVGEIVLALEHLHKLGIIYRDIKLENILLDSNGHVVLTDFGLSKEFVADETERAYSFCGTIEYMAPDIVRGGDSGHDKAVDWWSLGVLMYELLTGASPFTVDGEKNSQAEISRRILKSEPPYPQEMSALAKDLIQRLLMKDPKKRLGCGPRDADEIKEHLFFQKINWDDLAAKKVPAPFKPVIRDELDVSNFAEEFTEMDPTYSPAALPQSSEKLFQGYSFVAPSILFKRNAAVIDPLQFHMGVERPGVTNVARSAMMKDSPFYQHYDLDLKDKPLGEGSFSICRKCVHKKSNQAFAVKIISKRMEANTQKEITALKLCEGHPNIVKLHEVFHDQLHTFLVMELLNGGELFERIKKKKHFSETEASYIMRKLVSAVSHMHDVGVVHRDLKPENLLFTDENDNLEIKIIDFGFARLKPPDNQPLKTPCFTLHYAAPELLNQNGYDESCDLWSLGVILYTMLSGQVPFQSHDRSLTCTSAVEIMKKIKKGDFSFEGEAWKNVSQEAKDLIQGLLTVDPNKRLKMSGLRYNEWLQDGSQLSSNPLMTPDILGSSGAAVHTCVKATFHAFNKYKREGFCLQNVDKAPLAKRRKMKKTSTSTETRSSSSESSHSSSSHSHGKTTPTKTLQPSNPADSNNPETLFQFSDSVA
Receptor tyrosine-protein kinase erbB-3 (Homo sapiens), sequence (P21860 whole entry): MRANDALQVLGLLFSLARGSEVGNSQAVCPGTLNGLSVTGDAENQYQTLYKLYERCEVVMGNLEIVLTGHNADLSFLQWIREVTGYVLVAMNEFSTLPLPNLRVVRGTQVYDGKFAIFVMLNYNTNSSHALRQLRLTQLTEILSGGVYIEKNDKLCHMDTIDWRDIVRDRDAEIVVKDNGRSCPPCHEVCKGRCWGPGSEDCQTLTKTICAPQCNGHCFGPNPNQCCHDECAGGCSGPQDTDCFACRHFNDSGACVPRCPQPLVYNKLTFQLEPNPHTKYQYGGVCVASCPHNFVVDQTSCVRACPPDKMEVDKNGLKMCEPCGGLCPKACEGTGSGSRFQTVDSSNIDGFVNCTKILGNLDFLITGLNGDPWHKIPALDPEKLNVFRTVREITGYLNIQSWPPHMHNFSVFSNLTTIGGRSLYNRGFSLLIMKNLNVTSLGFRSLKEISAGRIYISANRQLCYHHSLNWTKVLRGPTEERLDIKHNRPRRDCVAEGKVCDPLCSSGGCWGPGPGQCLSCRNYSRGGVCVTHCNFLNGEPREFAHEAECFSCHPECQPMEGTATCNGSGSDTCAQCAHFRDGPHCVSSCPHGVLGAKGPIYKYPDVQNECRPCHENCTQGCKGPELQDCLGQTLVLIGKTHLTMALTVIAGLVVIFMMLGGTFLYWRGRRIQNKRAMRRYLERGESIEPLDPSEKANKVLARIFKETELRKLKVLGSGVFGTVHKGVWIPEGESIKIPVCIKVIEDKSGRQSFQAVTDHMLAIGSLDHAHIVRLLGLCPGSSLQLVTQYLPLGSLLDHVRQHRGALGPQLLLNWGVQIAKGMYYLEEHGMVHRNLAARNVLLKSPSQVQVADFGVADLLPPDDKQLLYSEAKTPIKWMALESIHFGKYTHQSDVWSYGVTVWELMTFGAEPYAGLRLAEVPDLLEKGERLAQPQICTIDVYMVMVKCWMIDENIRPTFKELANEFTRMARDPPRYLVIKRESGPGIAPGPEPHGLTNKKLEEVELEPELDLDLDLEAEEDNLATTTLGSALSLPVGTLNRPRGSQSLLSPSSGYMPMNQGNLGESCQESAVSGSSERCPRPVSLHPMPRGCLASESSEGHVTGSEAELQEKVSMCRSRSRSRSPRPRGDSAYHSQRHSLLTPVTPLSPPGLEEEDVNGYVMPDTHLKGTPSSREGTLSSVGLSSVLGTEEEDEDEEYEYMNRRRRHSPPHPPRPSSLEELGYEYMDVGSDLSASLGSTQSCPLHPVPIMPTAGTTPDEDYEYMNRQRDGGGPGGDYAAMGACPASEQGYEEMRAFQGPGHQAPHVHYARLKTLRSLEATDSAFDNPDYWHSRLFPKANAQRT
Serine/threonine-protein kinase RIO3 (Homo sapiens), sequence (O14730 whole entry): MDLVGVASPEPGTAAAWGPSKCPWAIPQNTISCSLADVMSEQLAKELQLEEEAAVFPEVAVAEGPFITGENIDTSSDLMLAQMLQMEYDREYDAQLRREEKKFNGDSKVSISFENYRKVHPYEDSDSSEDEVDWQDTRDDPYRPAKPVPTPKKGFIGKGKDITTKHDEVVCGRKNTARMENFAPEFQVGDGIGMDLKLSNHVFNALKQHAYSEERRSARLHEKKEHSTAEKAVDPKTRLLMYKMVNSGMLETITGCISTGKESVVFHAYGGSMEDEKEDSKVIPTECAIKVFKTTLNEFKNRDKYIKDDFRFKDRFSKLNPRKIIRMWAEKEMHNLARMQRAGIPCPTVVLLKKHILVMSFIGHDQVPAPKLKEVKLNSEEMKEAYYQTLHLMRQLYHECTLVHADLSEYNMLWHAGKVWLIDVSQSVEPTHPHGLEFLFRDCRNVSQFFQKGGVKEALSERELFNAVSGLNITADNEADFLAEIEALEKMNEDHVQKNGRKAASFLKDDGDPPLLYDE
Protein kinase C theta type (Homo sapiens), sequence (Q04759 whole entry, looked up): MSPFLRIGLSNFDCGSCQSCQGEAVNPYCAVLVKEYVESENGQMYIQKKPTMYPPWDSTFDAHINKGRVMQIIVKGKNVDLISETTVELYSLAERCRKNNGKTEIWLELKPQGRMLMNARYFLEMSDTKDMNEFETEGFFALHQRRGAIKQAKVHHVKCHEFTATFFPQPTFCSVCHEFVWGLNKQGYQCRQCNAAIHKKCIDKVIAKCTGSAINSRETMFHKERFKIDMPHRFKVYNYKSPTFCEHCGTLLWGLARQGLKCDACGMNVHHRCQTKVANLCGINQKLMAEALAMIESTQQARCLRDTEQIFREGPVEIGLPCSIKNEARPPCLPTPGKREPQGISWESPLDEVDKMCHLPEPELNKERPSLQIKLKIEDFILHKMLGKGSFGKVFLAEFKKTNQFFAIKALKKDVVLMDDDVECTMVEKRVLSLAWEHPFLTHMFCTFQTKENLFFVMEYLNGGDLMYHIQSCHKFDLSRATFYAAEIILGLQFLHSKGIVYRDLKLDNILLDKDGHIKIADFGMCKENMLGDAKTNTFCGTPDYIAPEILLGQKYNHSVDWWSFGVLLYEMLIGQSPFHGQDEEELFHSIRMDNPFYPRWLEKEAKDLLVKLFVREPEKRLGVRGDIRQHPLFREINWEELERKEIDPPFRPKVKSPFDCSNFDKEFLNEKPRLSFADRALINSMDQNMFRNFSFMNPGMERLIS

CCOC(=O)c1cc2cc(-c3cc(C(=O)NCc4ccc(C(=O)O)cc4)nn3C)ccc2[nH]1 [BI 4394]
residual activity [1]: 100% | residual activity [2]: 89% | residual activity [3]: 77% | residual activity [4]: 100% | inhibition [5]: -1.91% | residual activity [6]: 100% | residual activity [7]: 87% | residual activity [8]: 98% | residual activity [9]: 81% | residual activity [10]: 100% | residual activity [11]: 86% | residual activity [12]: 76% | residual activity [13]: 82% | residual activity [14]: 64% | residual activity [15]: 87% | residual activity [16]: 83% | residual activity [17]: 100% | residual activity [18]: 97% | residual activity [19]: 93% | residual activity [20]: 100% | residual activity [21]: 100% | residual activity [22]: 88% | residual activity [23]: 100% | residual activity [24]: 74% | residual activity [25]: 100% | residual activity [26]: 91% | residual activity [27]: 90%

Cn1nc(C(=O)NCc2ccc(C(=O)O)cc2)cc1-c1ccc2[nH]ccc2c1 [BI 4395]
residual activity [1]: 48% | residual activity [2]: 97% | residual activity [3]: 77% | residual activity [4]: 87% | inhibition [5]: 6.39% | residual activity [6]: 94% | residual activity [7]: 76% | residual activity [8]: 89% | residual activity [9]: 77% | residual activity [10]: 70% | residual activity [11]: 83% | residual activity [12]: 91% | residual activity [13]: 68% | residual activity [14]: 95% | residual activity [15]: 100% | residual activity [16]: 84% | residual activity [17]: 100% | residual activity [18]: 99% | residual activity [19]: 96% | residual activity [20]: 96% | residual activity [21]: 100% | residual activity [22]: 81% | residual activity [23]: 83% | residual activity [24]: 88% | residual activity [25]: 100% | residual activity [26]: 76% | residual activity [27]: 64%
